Patent US4091206A, “Quinoxaline-1,4-dioxide derivatives” (Egyt Gyogyszervegyeszeti Gyar, priority 1974, dated 1978)

Assays:
oral toxicity on mice = conditions: mouse, in vivo
Description: (§1) The fodder utilization factors determined for the compounds according to the invention, furthermore the oral toxicity data of the novel compounds measured on mice are listed in Table 1. For the sake of comparison the respective data of some known compounds structurally related to those of formula I are also given.

pigs = test: weight gain increasing effect on pigs (fodder admixed with compound), fodder utilization factor; type: in vivo; conditions: fodder admixed with 50 mg./kg. of compound, index from feeding coefficient and percentage daily weight gain, control 50
Procedure: When utilized as fodder additives, the new compounds according to the invention increase the weight gain and fodder utilization of pigs. The weight gain increasing effect of the compounds was tested on pigs as follows:
The animals were fed under the same conditions with fodders of the same amount and composition. In the test groups the animals received a fodder admixed with 50 mg./kg. of the compound to be tested, whereas no additive was admixed with the fodder in the control group.
The weight gain was measured daily, and the feeding coefficient (amount of consumed fodder resulting in a weight gain of 1 kg.) was calculated. The percentage daily weight gain was calculated by the formula [formula]
Since the rate of weight gain increasing effect depends on both the feeding coefficient and the percentage daily weight gain, and because of the actual fodder consumption and the time required to reach the slaughter weight are the important factors of economical animal husbandry, an index characteristic of the rate of weight gain increase was calculated from the above data by the equation [formula] The higher is the fodder utilization factor the more economic is the pig-breeding.
as §1

Row | SMILES | LD50 (oral toxicity on mice; po) [mg/kg] | Fodder utilization factor (pigs) | LD50 (oral toxicity on mice; oral, mice) [mg/kg]
1 | O=C(Cc1cccc2ccccc12)NN=Cc1c[n+]([O-])c2ccccc2[n+]1[O-] [1-napthylmethyl, 2-(1'-Naphthyl-acetyl)-hydrazono-formyl-quinoxaline-1,4-dioxide] | 13000 | 93.5 | –
2 | O=C(NN=Cc1c[n+]([O-])c2ccccc2[n+]1[O-])c1ccncc1 [Example 4-pyridyl, 2-(Isonicotinoyl)-hydrazono-formyl-quinoxaline-1,4-dioxide] | – | 91 | 12000
3 | O=C(NN=Cc1c[n+]([O-])c2ccccc2[n+]1[O-])c1ccc([N+](=O)[O-])o1 [Example 5-nitrofuryl, 2-(5'-Nitro-2'-furanoyl)-hydrazono-formyl-quinoxaline-1,4-dioxide] | 14000 | 91 | –
4 | CCCCCCC(=O)NN=Cc1c[n+]([O-])c2ccccc2[n+]1[O-] [hexyl, 2-(Hexylcarbonyl-hydrazono-formyl)-quinoxaline-1,4-dioxide] | 4000 | 53 | –
5 | COC(=O)NN=Cc1c[n+]([O-])c2ccccc2[n+]1[O-] [methoxy, 2-(Methoxycarbonyl-hydrazono-formyl)-quinoxaline-1,4-dioxide] | – | 66 | 4000
6 | O=C(NN=Cc1c[n+]([O-])c2ccccc2[n+]1[O-])c1ccccc1 [phenyl, 2-(Benzoyl-hydrazono-formyl)-quinoxaline-1,4-dioxide] | – | 66 | 4000
